# Test system: MV-4-11 cells
# Test: Gene expression microarray analysis (Affymetrix PrimeView) and GSEA
# Assay type: cell-based, human
# Parameters: RFU PODN (11730768_x_at) / Fold change /veh PODN (11730768_x_at) / RFU LINC00158 (11744669_a_at) / Fold change /veh LINC00158 (11744669_a_at) / RFU DUSP10 (11751237_a_at) / Fold change /veh DUSP10 (11751237_a_at) / RFU ID3 (11757404_x_at) / Fold change /veh ID3 (11757404_x_at) / RFU PLEKHG5 (11737974_s_at) / Fold change /veh PLEKHG5 (11737974_s_at) / RFU LRRC4B (11730491_at) / Fold change /veh LRRC4B (11730491_at) / RFU GIMAP4 (11747438_a_at) / Fold change /veh GIMAP4 (11747438_a_at) / RFU KRT8 (11758183_x_at) / Fold change /veh KRT8 (11758183_x_at) / RFU CNN1 (11734310_a_at) / Fold change /veh CNN1 (11734310_a_at) / RFU VPS37D (11726825_at) / Fold change /veh VPS37D (11726825_at) / RFU C10orf10 (11716522_x_at) / Fold change /veh C10orf10 (11716522_x_at) / RFU KIR2DL2 /// KIR2DL4 /// KIR2DL5A /// KIR2DL5B /// KIR2DS1 /// KIR2DS2 /// KIR2DS3 /// KIR2DS4 /// KIR3DL3 /// KIR3DL3 /// KIR3DS1 (11738374_at) / Fold change /veh KIR2DL2 /// KIR2DL4 /// KIR2DL5A /// KIR2DL5B /// KIR2DS1 /// KIR2DS2 /// KIR2DS3 /// KIR2DS4 /// KIR3DL3 /// KIR3DL3 /// KIR3DS1 (11738374_at) / RFU C1QL1 (11718748_at) / Fold change /veh C1QL1 (11718748_at) / RFU TMPRSS4 (11747572_a_at) / Fold change /veh TMPRSS4 (11747572_a_at) / RFU HAMP (11756126_x_at) / Fold change /veh HAMP (11756126_x_at) / RFU RNFT2 (11725882_a_at) / Fold change /veh RNFT2 (11725882_a_at) / RFU NR4A2 (11747474_a_at) / Fold change /veh NR4A2 (11747474_a_at) / RFU ABCC12 (11746883_a_at) / Fold change /veh ABCC12 (11746883_a_at) / RFU TMEM136 (11760407_x_at) / Fold change /veh TMEM136 (11760407_x_at) / RFU CLDN22 /// WWC2 (11732394_at) / Fold change /veh CLDN22 /// WWC2 (11732394_at) / RFU HLA-DPB1 (11760878_x_at) / Fold change /veh HLA-DPB1 (11760878_x_at) / RFU SPINT1 (11716480_a_at) / Fold change /veh SPINT1 (11716480_a_at) / RFU GAP43 (11754022_s_at) / Fold change /veh GAP43 (11754022_s_at) / RFU A4GNT (11735810_at) / Fold change /veh A4GNT (11735810_at) / RFU PRB3 (11715151_x_at) / Fold change /veh PRB3 (11715151_x_at) / RFU TUBB4B (11761932_at) / Fold change /veh TUBB4B (11761932_at) / RFU CAPN14 (11732068_a_at) / Fold change /veh CAPN14 (11732068_a_at) / RFU TMCC2 (11721928_a_at) / Fold change /veh TMCC2 (11721928_a_at) / RFU IRGQ (11745062_a_at) / Fold change /veh IRGQ (11745062_a_at) / RFU FAM174B (11720279_a_at) / Fold change /veh FAM174B (11720279_a_at) / RFU TMPRSS4 (11748680_a_at) / Fold change /veh TMPRSS4 (11748680_a_at) / RFU FAM212B (11763350_a_at) / Fold change /veh FAM212B (11763350_a_at) / RFU PLEKHG5 (11743358_a_at) / Fold change /veh PLEKHG5 (11743358_a_at) / RFU ZSCAN30 (11745921_a_at) / Fold change /veh ZSCAN30 (11745921_a_at) / RFU CMKLR1 (11741424_a_at) / Fold change /veh CMKLR1 (11741424_a_at) / RFU LOC101060620 /// MAPK8IP1 (11723275_at) / Fold change /veh LOC101060620 /// MAPK8IP1 (11723275_at) / RFU SPTSSB (11747773_x_at) / Fold change /veh SPTSSB (11747773_x_at) / RFU PRSS12 (11739890_at) / Fold change /veh PRSS12 (11739890_at) / RFU BIN1 (11741810_x_at) / Fold change /veh BIN1 (11741810_x_at) / RFU WNT11 (11732464_a_at) / Fold change /veh WNT11 (11732464_a_at) / RFU C10orf10 (11716521_a_at) / Fold change /veh C10orf10 (11716521_a_at) / RFU C5orf56 (11738089_at) / Fold change /veh C5orf56 (11738089_at) / RFU CYB561 (11721691_x_at) / Fold change /veh CYB561 (11721691_x_at) / RFU ANKRD19P (11752326_a_at) / Fold change /veh ANKRD19P (11752326_a_at) / RFU OR2T12 /// OR2T33 /// OR2T8 (11738714_s_at) / Fold change /veh OR2T12 /// OR2T33 /// OR2T8 (11738714_s_at) / RFU VCAN (11748164_a_at) / Fold change /veh VCAN (11748164_a_at) / RFU JSRP1 (11732532_at) / Fold change /veh JSRP1 (11732532_at) / RFU KRTAP10-11 (11738290_x_at) / Fold change /veh KRTAP10-11 (11738290_x_at) / RFU MYO3A (11730013_a_at) / Fold change /veh MYO3A (11730013_a_at) / RFU EBF3 (11725865_a_at) / Fold change /veh EBF3 (11725865_a_at) / RFU CAMK2N1 (11719241_x_at) / Fold change /veh CAMK2N1 (11719241_x_at) / RFU C5orf56 (11738088_a_at) / Fold change /veh C5orf56 (11738088_a_at) / RFU OLFML3 (11715873_a_at) / Fold change /veh OLFML3 (11715873_a_at) / RFU LOC100653217 /// NTM (11731650_a_at) / Fold change /veh LOC100653217 /// NTM (11731650_a_at) / RFU MAPK11 (11762145_a_at) / Fold change /veh MAPK11 (11762145_a_at) / RFU FIZ1 (11724087_x_at) / Fold change /veh FIZ1 (11724087_x_at) / RFU OASL (11726364_x_at) / Fold change /veh OASL (11726364_x_at) / RFU SOX15 (11748057_x_at) / Fold change /veh SOX15 (11748057_x_at) / RFU CD79A (11719716_a_at) / Fold change /veh CD79A (11719716_a_at) / RFU HIST1H1D (11736915_at) / Fold change /veh HIST1H1D (11736915_at) / RFU CASKIN2 (11723855_a_at) / Fold change /veh CASKIN2 (11723855_a_at) / RFU LOC730098 (11760151_x_at) / Fold change /veh LOC730098 (11760151_x_at) / RFU OR4N2 (11742367_at) / Fold change /veh OR4N2 (11742367_at) / RFU PRRT2 (11749266_a_at) / Fold change /veh PRRT2 (11749266_a_at) / RFU SNX32 (11753110_a_at) / Fold change /veh SNX32 (11753110_a_at) / RFU CDHR5 (11726645_a_at) / Fold change /veh CDHR5 (11726645_a_at) / RFU RCAN1 (11760418_a_at) / Fold change /veh RCAN1 (11760418_a_at) / RFU FAM167A (11723789_a_at) / Fold change /veh FAM167A (11723789_a_at) / RFU FAM26E (11764081_at) / Fold change /veh FAM26E (11764081_at) / RFU ISYNA1 (11749810_s_at) / Fold change /veh ISYNA1 (11749810_s_at) / RFU ACY1 (11761880_at) / Fold change /veh ACY1 (11761880_at) / RFU 11764098_at / Fold change /veh 11764098_at / RFU SAMD14 (11745864_x_at) / Fold change /veh SAMD14 (11745864_x_at) / RFU NPB (11741838_a_at) / Fold change /veh NPB (11741838_a_at) / RFU TMPRSS6 (11731388_a_at) / Fold change /veh TMPRSS6 (11731388_a_at) / RFU KRTAP10-2 (11738614_at) / Fold change /veh KRTAP10-2 (11738614_at) / RFU ARHGAP8 /// PRR5-ARHGAP8 (11727945_x_at) / Fold change /veh ARHGAP8 /// PRR5-ARHGAP8 (11727945_x_at) / RFU KRTAP5-7 /// NADSYN1 (11734609_at) / Fold change /veh KRTAP5-7 /// NADSYN1 (11734609_at) / RFU RASL12 (11751679_a_at) / Fold change /veh RASL12 (11751679_a_at) / RFU CDKN2B (11736163_a_at) / Fold change /veh CDKN2B (11736163_a_at) / RFU PRF1 (11729649_at) / Fold change /veh PRF1 (11729649_at) / RFU, ZNF638 /// ZNF638-IT1 / Fold change vs veh, ZNF638 /// ZNF638-IT1 / RFU, PANK3 / Fold change vs veh, PANK3 / RFU, SH3YL1 / Fold change vs veh, SH3YL1 / RFU, ZEB2 / Fold change vs veh, ZEB2 / RFU, NRIP1 / Fold change vs veh, NRIP1 / RFU, PTTG1IP / Fold change vs veh, PTTG1IP / RFU, CAPN2 / Fold change vs veh, CAPN2 / RFU, MED14 / Fold change vs veh, MED14 / RFU, SNORA58 / Fold change vs veh, SNORA58 / RFU, C1orf63 / Fold change vs veh, C1orf63 / RFU, LRRFIP1 / Fold change vs veh, LRRFIP1 / RFU, NDUFAF7 / Fold change vs veh, NDUFAF7 / RFU, SLC12A2 / Fold change vs veh, SLC12A2 / RFU, IBTK / Fold change vs veh, IBTK / RFU, ESF1 / Fold change vs veh, ESF1 / Fold change vs veh, TMEM50B / RFU, TAOK1 / Fold change vs veh, TAOK1 / RFU, ACBD3 / Fold change vs veh, ACBD3 / RFU, TMA16 / Fold change vs veh, TMA16 / RFU, RWDD3 / Fold change vs veh, RWDD3 / RFU, BCAT1 / Fold change vs veh, BCAT1 / RFU, EDEM3 / Fold change vs veh, EDEM3 / RFU, TMEM33 / Fold change vs veh, TMEM33 / RFU, WDR75 / Fold change vs veh, WDR75 / RFU, AHCTF1 / Fold change vs veh, AHCTF1 / RFU, TFRC / Fold change vs veh, TFRC / RFU, ZDHHC17 / Fold change vs veh, ZDHHC17 / RFU, NOM1 / Fold change vs veh, NOM1 / RFU, ARL8B / Fold change vs veh, ARL8B / RFU, ZBTB11 / Fold change vs veh, ZBTB11 / RFU, TAMM41 / Fold change vs veh, TAMM41 / RFU, KIAA1704 /// LOC100996395 / Fold change vs veh, KIAA1704 /// LOC100996395 / RFU, ING1 / Fold change vs veh, ING1 / RFU, TRMT61B / Fold change vs veh, TRMT61B / RFU, FUBP3 / Fold change vs veh, FUBP3 / RFU, TP53 / Fold change vs veh, TP53 / RFU, TNKS2 / Fold change vs veh, TNKS2 / RFU, ZFP14 / Fold change vs veh, ZFP14 / RFU, ACTR2 / Fold change vs veh, ACTR2 / RFU, PPP3R1 / Fold change vs veh, PPP3R1 / RFU, PIK3R1 / Fold change vs veh, PIK3R1 / RFU, HNRNPA1 / Fold change vs veh, HNRNPA1 / RFU, RNF170 / Fold change vs veh, RNF170 / RFU, ZNF28 / Fold change vs veh, ZNF28 / RFU, RNGTT / Fold change vs veh, RNGTT / RFU, OGT / Fold change vs veh, OGT / RFU, BRD1 / Fold change vs veh, BRD1 / RFU, MARS / Fold change vs veh, MARS / RFU, ZNF655 / Fold change vs veh, ZNF655 / RFU, FAHD1 / Fold change vs veh, FAHD1 / RFU, BDP1 / Fold change vs veh, BDP1 / RFU, LRRCC1 / Fold change vs veh, LRRCC1 / RFU, ARID1A / Fold change vs veh, ARID1A / RFU, ZNF146 / Fold change vs veh, ZNF146 / RFU, ZNF330 / Fold change vs veh, ZNF330 / RFU, GPN3 / Fold change vs veh, GPN3 / RFU, C9orf123 / Fold change vs veh, C9orf123 / RFU, N4BP2L2 / Fold change vs veh, N4BP2L2 / RFU, ARFIP1 / Fold change vs veh, ARFIP1 / RFU, FAM179B / Fold change vs veh, FAM179B / RFU, BCL10 / Fold change vs veh, BCL10 / RFU, UHRF1BP1L / Fold change vs veh, UHRF1BP1L / RFU, BET1 / Fold change vs veh, BET1 / RFU, CNOT2 / Fold change vs veh, CNOT2 / RFU, ZNF268 / Fold change vs veh, ZNF268 / Fold change vs veh, ZNF507 / RFU, DGCR2 / Fold change vs veh, DGCR2 / RFU, WDSUB1 / Fold change vs veh, WDSUB1 / Fold change vs veh, HSP90B1 /// MIR3652 / RFU, ADSS / Fold change vs veh, ADSS / RFU, GK / Fold change vs veh, GK / RFU, ZNF148 / Fold change vs veh, ZNF148 / RFU, TAF9 / Fold change vs veh, TAF9 / RFU, SLC1A5 / Fold change vs veh, SLC1A5 / RFU, SLMO2 / Fold change vs veh, SLMO2 / RFU, ABCC4 / Fold change vs veh, ABCC4 / RFU, LOC101060439 /// RAP1B / Fold change vs veh, LOC101060439 /// RAP1B / RFU, RFX7 / Fold change vs veh, RFX7 / RFU, GTPBP10 / Fold change vs veh, GTPBP10 / RFU, CNEP1R1 / Fold change vs veh, CNEP1R1 / RFU, BIVM-ERCC5 /// ERCC5 / Fold change vs veh, BIVM-ERCC5 /// ERCC5 / RFU, ILF3 / Fold change vs veh, ILF3 / RFU 11762660_at / Fold change /veh 11762660_at / RFU VCAN (11757783_s_at) / Fold change /veh VCAN (11757783_s_at) / RFU DDX43 (11728927_at) / Fold change /veh DDX43 (11728927_at) / RFU KRT8 (11758188_x_at) / Fold change /veh KRT8 (11758188_x_at) / RFU NKD1 (11759106_at) / Fold change /veh NKD1 (11759106_at) / RFU SRD5A1 (11742802_a_at) / Fold change /veh SRD5A1 (11742802_a_at) / RFU TPSAB1 /// TPSB2 (11721975_s_at) / Fold change /veh TPSAB1 /// TPSB2 (11721975_s_at) / RFU GSTM3 (11746129_a_at) / Fold change /veh GSTM3 (11746129_a_at) / RFU IL23R (11737362_x_at) / Fold change /veh IL23R (11737362_x_at) / RFU TMEM51 (11727254_a_at) / Fold change /veh TMEM51 (11727254_a_at) / RFU PIWIL2 (11732686_x_at) / Fold change /veh PIWIL2 (11732686_x_at) / RFU ORM1 (11744905_x_at) / Fold change /veh ORM1 (11744905_x_at) / RFU CCDC152 (11743942_at) / Fold change /veh CCDC152 (11743942_at) / RFU ECM1 (11717891_a_at) / Fold change /veh ECM1 (11717891_a_at) / RFU IL23R (11748794_a_at) / Fold change /veh IL23R (11748794_a_at) / RFU TNFAIP8L3 (11732012_x_at) / Fold change /veh TNFAIP8L3 (11732012_x_at) / RFU MBOAT4 (11741988_at) / Fold change /veh MBOAT4 (11741988_at) / RFU 11764193_at / Fold change /veh 11764193_at / RFU TMEM53 (11763286_at) / Fold change /veh TMEM53 (11763286_at) / RFU MAGEB2 (11727129_at) / Fold change /veh MAGEB2 (11727129_at) / RFU TMEM200A (11744735_a_at) / Fold change /veh TMEM200A (11744735_a_at) / RFU CCDC152 (11751479_a_at) / Fold change /veh CCDC152 (11751479_a_at) / RFU FAM211A (11726209_a_at) / Fold change /veh FAM211A (11726209_a_at) / RFU RGS16 (11746705_a_at) / Fold change /veh RGS16 (11746705_a_at) / RFU VCAN (11755009_s_at) / Fold change /veh VCAN (11755009_s_at) / RFU RHOB (11743442_s_at) / Fold change /veh RHOB (11743442_s_at) / RFU RGS16 (11720943_a_at) / Fold change /veh RGS16 (11720943_a_at) / RFU RGS16 (11720944_at) / Fold change /veh RGS16 (11720944_at) / RFU, VPS4B / Fold change vs veh, VPS4B / RFU, CREB1 / Fold change vs veh, CREB1 / RFU, DNAJC13 / Fold change vs veh, DNAJC13 / RFU, GNAQ / Fold change vs veh, GNAQ / RFU, CDK5R1 / Fold change vs veh, CDK5R1 / RFU, ZRANB3 / Fold change vs veh, ZRANB3 / RFU, CUL4A / Fold change vs veh, CUL4A / RFU, CCNY / Fold change vs veh, CCNY / RFU, UFL1 / Fold change vs veh, UFL1 / RFU, COG3 / Fold change vs veh, COG3 / RFU, DIAPH2 / Fold change vs veh, DIAPH2 / RFU, SKA2 / Fold change vs veh, SKA2 / RFU, AFF3 / Fold change vs veh, AFF3 / RFU, LMF1 / Fold change vs veh, LMF1 / RFU, IPO11 / Fold change vs veh, IPO11 / RFU, DFFB / Fold change vs veh, DFFB / RFU, FOXP1 / Fold change vs veh, FOXP1 / RFU, CARD8 / Fold change vs veh, CARD8 / RFU, STRN3 / Fold change vs veh, STRN3 / RFU, ADK / Fold change vs veh, ADK / RFU, RASSF2 / Fold change vs veh, RASSF2 / RFU, WIPF1 / Fold change vs veh, WIPF1 / RFU, LARP1B / Fold change vs veh, LARP1B / RFU, RASA1 / Fold change vs veh, RASA1 / RFU, RB1 / Fold change vs veh, RB1 / RFU, PPFIA1 / Fold change vs veh, PPFIA1 / RFU, MAT2A / Fold change vs veh, MAT2A / RFU, CCT5 / Fold change vs veh, CCT5 / RFU, WDR92 / Fold change vs veh, WDR92 / RFU, CUX1 / Fold change vs veh, CUX1 / RFU, TTC7A / Fold change vs veh, TTC7A / RFU, TMEM135 / Fold change vs veh, TMEM135 / RFU, DEPTOR / Fold change vs veh, DEPTOR / RFU, CPM / Fold change vs veh, CPM / RFU, DNAJB6 / Fold change vs veh, DNAJB6 / RFU, CACNA2D3 / Fold change vs veh, CACNA2D3 / RFU, DTX4 / Fold change vs veh, DTX4 / RFU, TFCP2 / Fold change vs veh, TFCP2 / RFU, GMCL1 /// GMCL1P1 / Fold change vs veh, GMCL1 /// GMCL1P1 / RFU, AEBP2 / Fold change vs veh, AEBP2 / RFU, SNHG1 /// SNORD22 /// SNORD25 /// SNORD26 /// SNORD27 /// SNORD28 /// SNORD29 /// SNORD31 / Fold change vs veh, SNHG1 /// SNORD22 /// SNORD25 /// SNORD26 /// SNORD27 /// SNORD28 /// SNORD29 /// SNORD31 / Fold change (Aza/veh), C12orf56 (ProbeSet 11735607_a_at) / Fold change (ACY-1035/veh), C12orf56 (ProbeSet 11735607_a_at) / Fold change (Aza/veh), FGFR1OP (ProbeSet 11751329_s_at) / Fold change (ACY-1035/veh), FGFR1OP (ProbeSet 11751329_s_at) / Fold change (Aza/veh), VPS36 (ProbeSet 11739960_a_at) / Fold change (ACY-1035/veh), VPS36 (ProbeSet 11739960_a_at) / RFU SYPL1 (11715823_x_at) / Fold change /veh SYPL1 (11715823_x_at) / RFU IGFBP7 (11715501_s_at) / Fold change /veh IGFBP7 (11715501_s_at) / RFU REEP3 (11722064_at) / Fold change /veh REEP3 (11722064_at) / RFU IGLL1 (11728026_x_at) / Fold change /veh IGLL1 (11728026_x_at): dose or concentration left out as unconfirmed
# Conditions: ProbeSet 11719632_a_at; LIST B
smiles,measurement,value
Nc1ccc(-c2cccs2)cc1NC(=O)c1ccc2c(c1)cc(C1CC1)n2CCN1CCOCC1 [ACY-1035],"RFU, ABCC4",40.19 RFU

# Reference: publication PMC5218480 (PLoS ONE, 2017)
